# Experimental data as given in ChEMBL document CHEMBL6134848, “Deuteration Strategy-Inspired Design of Novel Diarylpyrimidine Derivatives as Potent Non-Nucleoside Reverse Transcriptase Inhibitors Featuring Improved Efficacy, Selectivity, and Druggability” (J Med Chem, 2025).
# How the values were obtained:
# [1] = Metabolic stability in human liver microsomes assessed as half life at 1 uM measured up to 45 mins by LC/MS/MS analysis; assay type: ADME, Microsome; conditions: microsomes, 0.75 h, 1 µM
# [2] = target: T1, Cytochrome P450 1A2 (Homo sapiens, UniProt P05177); experiment: Inhibition of CYP1A2 in human liver microsomes using phenacetin as substrate incubated for 15 to 45 mins by; assay type: ADME, Microsome
# T1 sequence (P05177 whole entry): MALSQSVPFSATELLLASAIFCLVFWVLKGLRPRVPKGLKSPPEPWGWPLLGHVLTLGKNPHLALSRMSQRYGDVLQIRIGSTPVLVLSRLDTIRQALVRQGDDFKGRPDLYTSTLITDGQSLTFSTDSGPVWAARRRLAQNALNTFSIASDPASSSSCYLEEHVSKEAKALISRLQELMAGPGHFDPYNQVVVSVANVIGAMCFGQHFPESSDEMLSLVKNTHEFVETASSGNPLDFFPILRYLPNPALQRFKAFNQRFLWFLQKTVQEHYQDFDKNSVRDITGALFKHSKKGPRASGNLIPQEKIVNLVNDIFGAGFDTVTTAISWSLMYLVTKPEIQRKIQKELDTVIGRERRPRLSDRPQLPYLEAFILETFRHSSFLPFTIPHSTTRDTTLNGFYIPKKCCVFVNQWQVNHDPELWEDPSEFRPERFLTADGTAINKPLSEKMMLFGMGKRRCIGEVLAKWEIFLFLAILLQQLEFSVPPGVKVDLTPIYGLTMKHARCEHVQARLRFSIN
smiles,measurement,setting,value
[2H]C([2H])([2H])c1cc(C#N)cc(C([2H])([2H])[2H])c1Oc1nc(NC2CCN(Cc3ccc(S(N)(=O)=O)cc3)CC2)nc2ccsc12,t1/2,[1],18.6 min
same,IC50,[2],> 10 µM
